From ChEMBL document CHEMBL1275411, “Efficacy of SPK-843, a novel polyene antifungal, in comparison with amphotericin B, liposomal amphotericin B, and micafungin against murine pulmonary aspergillosis” (Antimicrob Agents Chemother, 2008)
≈ marks a conversion by molar mass, not a printed value. Calls of active or inactive are those of the source. The calls are words filed in the database; no cut-off is given here. *1 amine or outer side, *2 acyl side, *3 side chain or, on linkers, in order; H or OH if unused. Where a SMILES comes first, the peptide text is derived from it. Bridges are numbered along the chain shown (N, C = ends). [ ]: non-standard residue; d: D form. The star is where a group is joined. hTyr(3S-OH,4S-OH,3'-OSO3H) = N[C@H](C(=O)O)[C@H](O)[C@@H](O)c1ccc(O)c(OS(=O)(=O)O)c1; Orn(4R-OH,5R-OH) = O=C([C@H](C[C@@H](O)[C@@H](O)N[*:3])N[*:1])[*:2]; Pro(3S-OH,4S-Me) = C[C@H]1CN[C@H](C(=O)O)[C@H]1O; X1 = CCCCCOc1ccc(-c2cc(-c3ccc(C(=O)*)cc3)no2)cc1; Gln(3R-OH) = NC(=O)C[C@@H](O)[C@H](N)C(=O)O; Hyp = O=C(O)[C@@H]1C[C@@H](O)CN1

Key:
Aspergillus flavus [1] = assay: Antimicrobial activity against Aspergillus flavus infected in DBA/2N mouse at >1 mg/kg, iv qd for 5 days relative to amphotericin B; type: functional, organism-based
Aspergillus flavus [2] = assay: Antimicrobial activity against Aspergillus flavus conidia infected in DBA/2N mouse assessed as increased survival rate at =>1 mg/kg, iv qd for 5 days; type: functional, organism-based
Aspergillus niger [3] = assay: Antimicrobial activity against Aspergillus niger TIMM 2814 by broth microdilution method; type: functional
Aspergillus niger [4] = assay: Antimicrobial activity against Aspergillus niger conidia infected in DBA/2N mouse assessed as increased survival rate at =>0.25 mg/kg, iv qd for 5 days; type: functional, organism-based
Aspergillus niger [5] = assay: Antimicrobial activity against Aspergillus niger infected in DBA/2N mouse at >1 mg/kg, iv qd for 5 days relative to amphotericin B; type: functional, organism-based
Aspergillus [6] = assay: Antimicrobial activity against Aspergillus infected in DBA/2N mouse at 1 mg/kg, iv qd for 5 days; type: functional, organism-based; set-up: dose 1 mg/kg
Mus musculus [7] = assay: Toxicity in DBA/2N mouse infected with Aspergillus at >1.0 mg/kg, iv qd for 5 days relative to amphotericin B; type: organism-based; conditions: in vivo, 120 h
Aspergillus flavus [8] = assay: Antimicrobial activity against Aspergillus flavus conidia infected in DBA/2N mouse assessed as increased survival rate at 4 mg/kg, iv qd for 5 days relative to amphotericin B/L-amphotericin B; type: functional, organism-based; set-up: dose 4 mg/kg
Aspergillus fumigatus [9] = assay: Antimicrobial activity against Aspergillus fumigatus MF-13 by broth microdilution method; type: functional
Aspergillus flavus [10] = assay: Antimicrobial activity against Aspergillus flavus conidia infected in iv dosed DBA/2N mouse assessed as increased survival rate measured for 5 days; type: functional, organism-based
Aspergillus niger [11] = assay: Antimicrobial activity against Aspergillus niger conidia infected in DBA/2N mouse assessed as increased survival rate at 2 mg/kg, iv qd for 5 days relative to amphotericin B/L-amphotericin B; type: functional, organism-based; set-up: dose 2 mg/kg
Aspergillus fumigatus [12] = assay: Antimicrobial activity against Aspergillus fumigatus conidia infected in DBA/2N mouse assessed as increased survival rate at =>[…] mg/kg, iv qd for 5 days; type: functional, organism-based
Aspergillus fumigatus [13] = assay: Antimicrobial activity against Aspergillus fumigatus conidia infected in DBA/2N mouse assessed as increased survival rate at 0.25 to 1 mg/kg, iv qd for 5 days; type: functional, organism-based
Aspergillus niger [14] = assay: Antimicrobial activity against Aspergillus niger conidia infected in iv dosed DBA/2N mouse assessed as increased survival rate measured for 5 days; type: functional, organism-based
Aspergillus flavus [15] = assay: Antimicrobial activity against Aspergillus flavus TIMM 0057 by broth microdilution method; type: functional
Aspergillus [16] = assay: Antimicrobial activity against Aspergillus infected in DBA/2N mouse assessed as increased survival rate at >1 mg/kg, iv qd for 5 days relative to amphotericin B; type: functional, organism-based
Mus musculus [17] = assay: Toxicity in DBA/2N mouse infected with Aspergillus at =<1.0 mg/kg, iv qd after 5 days; type: organism-based; conditions: in vivo, 120 h
Aspergillus fumigatus [18] = assay: Antimicrobial activity against Aspergillus fumigatus infected in DBA/2N mouse at >1 mg/kg, iv qd for 5 days relative to amphotericin B; type: functional, organism-based
Aspergillus fumigatus [19] = assay: Antimicrobial activity against Aspergillus fumigatus conidia infected in DBA/2N mouse assessed as increased survival rate at 2 to 4 mg/kg, iv qd for 5 days; type: functional, organism-based
Mus musculus [20] = assay: Toxicity in Aspergillosis infected DBA/2N mouse assessed as histopathological lesions in kidney at 1 mg/kg, iv qd after 5 days; type: organism-based; set-up: dose 1 mg/kg, route intravenous; conditions: in vivo, 120 h
Mus musculus [21] = assay: Toxicity in Aspergillosis infected DBA/2N mouse assessed as histopathological lesions in kidney at 4 mg/kg, iv qd after 5 days; type: organism-based; set-up: dose 4 mg/kg, route intravenous; conditions: in vivo, 120 h
Mus musculus [22] = assay: Toxicity in Aspergillosis infected DBA/2N mouse assessed as kidney tubular cell necrosis and cast formation at 1 mg/kg, iv qd after 5 days; type: organism-based; set-up: dose 1 mg/kg, route intravenous; conditions: in vivo, 120 h

SMILES: CNc1ccc(C(=O)CC(O)CC[C@H](C)C2OC(=O)C[C@H](O)CC(=O)C[C@H](O)C[C@H](O)C[C@H](O)C[C@H](O)C[C@]3(O)C[C@H](O)[C@@H](C(=O)NCCN(C)C)[C@H](C[C@@H](O[C@@H]4O[C@H](C)[C@@H](O)[C@H](NC(=O)CN(C)C)[C@@H]4O)/C=C/C=C/C=C/C=C/C=C/C=C/C=C/C2C)O3)cc1.O=C1O[C@H]([C@@H](O)CO)C(O)=C1O.O=C1O[C@H]([C@@H](O)CO)C(O)=C1O (some centres not stated)
- Activity (Aspergillus flavus [1]): Active
- Activity (Aspergillus flavus [2]): Active
- MIC (Aspergillus niger [3]): 0.0625 µg/mL
- Activity (Aspergillus niger [4]): Active
- Activity (Aspergillus niger [5]): Active
- Activity (Aspergillus [6]): inactive
- Activity (Mus musculus [7]): Non-toxic
- Activity (Aspergillus flavus [8]): Active
- MIC (Aspergillus fumigatus [9]): 0.5 µg/mL
- Activity (Aspergillus flavus [10]): Dose-dependent effect
- Activity (Aspergillus niger [11]): Active
- Activity (Aspergillus fumigatus [12]): Active
- Activity (Aspergillus fumigatus [13]): Active
- Activity (Aspergillus niger [14]): Dose-dependent effect
- MIC (Aspergillus flavus [15]): 0.25 µg/mL
- Activity (Aspergillus [16]): Active
- Activity (Mus musculus [17]): Non-toxic
- Activity (Aspergillus fumigatus [18]): Active

SMILES: CCCCCOc1ccc(-c2cc(-c3ccc(C(=O)N[C@H]4C[C@@H](O)[C@@H](O)NC(=O)[C@@H]5[C@@H](O)[C@@H](C)CN5C(=O)[C@H]([C@H](O)CC(N)=O)NC(=O)[C@H]([C@H](O)[C@@H](O)c5ccc(O)c(OS(=O)(=O)O)c5)NC(=O)[C@@H]5C[C@@H](O)CN5C(=O)[C@H]([C@@H](C)O)NC4=O)cc3)no2)cc1 [MICAFUNGIN] (X1-[Orn(4R-OH,5R-OH)]T[Hyp][hTyr(3S-OH,4S-OH,3'-OSO3H)][Gln(3R-OH)][Pro(3S-OH,4S-Me)]; lactam 1-C)
- MIC (Aspergillus fumigatus [9]): 0.0156 µg/mL (≈ 0.0123 µM)

SMILES: C[C@@H]1[C@H](O)[C@@H](C)/C=C/C=C/C=C/C=C/C=C/C=C/C=C/[C@H](O[C@@H]2O[C@H](C)[C@@H](O)[C@H](N)[C@@H]2O)C[C@@H]2O[C@](O)(C[C@@H](O)C[C@@H](O)[C@H](O)CC[C@@H](O)C[C@@H](O)CC(=O)O[C@H]1C)C[C@H](O)[C@H]2C(=O)O [AMPHOTERICIN B]
- MIC (Aspergillus niger [3]): 0.25 µg/mL (≈ 0.271 µM)
- Activity (Aspergillus fumigatus [19]): Active
- MIC (Aspergillus fumigatus [9]): 0.25 µg/mL (≈ 0.271 µM)
- Activity (Mus musculus [20]): Non-toxic
- Activity (Mus musculus [21]): Non-toxic
- Activity (Aspergillus fumigatus [12]): Active
- Activity (Mus musculus [22]): Toxic
- MIC (Aspergillus flavus [15]): 0.5 µg/mL (≈ 0.541 µM)
